Key:
[1] = target: T1, Prostaglandin G/H synthase 2 (Ovis aries, UniProt P79208); experiment: In Vitro Cyclooxygenase (COX) Inhibition Assay
T1 sequence (P79208 whole entry): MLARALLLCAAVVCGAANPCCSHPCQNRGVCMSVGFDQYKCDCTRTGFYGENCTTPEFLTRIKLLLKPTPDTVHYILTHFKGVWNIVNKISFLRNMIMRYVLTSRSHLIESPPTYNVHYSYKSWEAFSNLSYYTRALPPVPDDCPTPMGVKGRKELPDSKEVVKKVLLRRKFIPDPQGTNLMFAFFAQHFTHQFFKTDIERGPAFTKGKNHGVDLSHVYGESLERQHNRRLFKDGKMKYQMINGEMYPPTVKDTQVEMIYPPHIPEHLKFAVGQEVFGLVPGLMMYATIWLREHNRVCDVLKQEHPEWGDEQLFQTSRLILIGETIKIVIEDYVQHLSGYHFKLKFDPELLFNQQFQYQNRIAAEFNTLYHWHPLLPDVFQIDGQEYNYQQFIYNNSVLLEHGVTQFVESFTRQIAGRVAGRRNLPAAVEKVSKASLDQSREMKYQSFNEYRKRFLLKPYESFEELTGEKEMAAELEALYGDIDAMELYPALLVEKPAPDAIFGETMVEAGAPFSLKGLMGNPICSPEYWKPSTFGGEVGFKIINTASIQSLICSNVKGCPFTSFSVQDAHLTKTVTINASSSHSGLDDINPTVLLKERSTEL
Experimental: (§1) Different concentrations of either celecoxib or tested compounds were incubated with the enzymes for a period of 5 min at 25 °C. After the incubation period the colorimetric substrate and arachidonic acid were added after that the absorbance was measured at 590 nm using plate reader.

[2] = target: T2, Prostaglandin G/H synthase 1 (Ovis aries, UniProt P05979); experiment: In Vitro Cyclooxygenase (COX) Inhibition Assay
T2 sequence (P05979 whole entry): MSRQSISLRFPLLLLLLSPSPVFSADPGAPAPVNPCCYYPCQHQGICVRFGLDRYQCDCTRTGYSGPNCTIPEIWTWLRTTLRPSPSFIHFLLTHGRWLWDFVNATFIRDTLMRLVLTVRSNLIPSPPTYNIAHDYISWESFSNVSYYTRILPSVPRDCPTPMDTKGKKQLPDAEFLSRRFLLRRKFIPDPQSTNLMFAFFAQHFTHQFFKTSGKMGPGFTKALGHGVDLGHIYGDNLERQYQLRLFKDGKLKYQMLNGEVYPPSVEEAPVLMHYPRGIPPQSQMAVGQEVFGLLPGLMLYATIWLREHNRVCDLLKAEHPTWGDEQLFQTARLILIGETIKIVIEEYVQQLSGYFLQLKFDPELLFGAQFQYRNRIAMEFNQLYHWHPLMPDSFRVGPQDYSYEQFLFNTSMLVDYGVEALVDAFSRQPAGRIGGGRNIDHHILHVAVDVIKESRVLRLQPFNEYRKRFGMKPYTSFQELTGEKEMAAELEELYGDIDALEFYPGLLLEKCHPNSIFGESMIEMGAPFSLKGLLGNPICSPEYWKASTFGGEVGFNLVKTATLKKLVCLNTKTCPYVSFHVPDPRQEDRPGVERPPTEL
Experimental: as §1

| Structure (SMILES) | IC50 [1] | IC50 [2] |
| --- | --- | --- |
| N#Cc1c(-c2ccc(Cl)cc2)cc(-c2ccc([N+](=O)[O-])cc2)[nH]c1=O [4-(4-chlorophenyl)-6-(4-nitrophenyl)-2-oxo-1,2-dihydropyridine-3-carbonitrile (4c)] | 7.3 µM | 23.4 µM |
| N#Cc1c(-c2cccs2)cc(-c2ccc([N+](=O)[O-])cc2)[nH]c1=O [6-(4-nitrophenyl)-2-oxo-4-(thiophen-2-yl)-1,2-dihydropyridine-3-carbonitrile (4f)] | 0.87 µM | 6.8 µM |
| CC(C)Cc1ccc(-c2cc(-c3cccs3)c(C#N)c(=O)[nH]2)cc1 [6-(4-Isobutylphenyl)-2-oxo-4-(2-thienyl)-1,2-dihydropyridine-3-carbonitrile (4l)] | 3.7 µM | 12.7 µM |
| CC(C)Cc1ccc(-c2cc(-c3ccco3)c(C#N)c(=O)[nH]2)cc1 [4-(2-Furyl)-6-(4-isobutylphenyl)-2-oxo-1,2-dihydropyridine-3-carbonitrile (4k)] | 1.11 µM | 7.3 µM |
| N#Cc1c(-c2ccc(F)cc2)cc(-c2ccc([N+](=O)[O-])cc2)[nH]c1=O [4-(4-Fluorophenyl)-6-(4-nitrophenyl)-2-oxo-1,2-dihydropyridine-3-carbonitrile (4d)] | 4.6 µM | 13.4 µM |
| Cc1ccc(-c2cc(-c3ccc([N+](=O)[O-])cc3)[nH]c(=O)c2C#N)cc1 [6-(4-Nitrophenyl)-2-oxo-4-(p-tolyl)-1,2-dihydropyridine-3-carbonitrile (4b)] | 2.9 µM | 12.9 µM |
| CC(C)Cc1ccc(-c2cc(-c3ccc(Cl)cc3)c(C#N)c(=O)[nH]2)cc1 [4-(4-Chlorophenyl)-6-(4-isobutylphenyl)-2-oxo-1,2-dihydropyridine-3-carbonitrile (4i)] | 5.1 µM | 14.2 µM |
| N#Cc1c(-c2ccccc2)cc(-c2ccc([N+](=O)[O-])cc2)[nH]c1=O [6-(4-nitrophenyl)-2-oxo-4-phenyl-1,2-dihydropyridine-3-carbonitrile (4a)] | 3.8 µM | 12.4 µM |
| CC(C)Cc1ccc(-c2cc(-c3ccc(F)cc3)c(C#N)c(=O)[nH]2)cc1 [4-(4-Fluorophenyl)-6-(4-isobutylphenyl)-2-oxo-1,2-dihydropyridine-3-carbonitrile (4j)] | 0.93 µM | 6.5 µM |
| N#Cc1c(-c2ccco2)cc(-c2ccc([N+](=O)[O-])cc2)[nH]c1=O [4-(2-Furyl)-6-(4-nitrophenyl)-2-oxo-1,2-dihydropyridine-3-carbonitrile (4e)] | 1.2 µM | 8.9 µM |
| CC(C)Cc1ccc(-c2cc(-c3ccccc3)c(C#N)c(=O)[nH]2)cc1 [6-(4-Isobutylphenyl)-2-oxo-4-phenyl-1,2-dihydropyridine-3-carbonitrile (4g)] | 3.4 µM | 13.1 µM |
| Cc1ccc(-c2cc(-c3ccc(CC(C)C)cc3)[nH]c(=O)c2C#N)cc1 [6-(4-Isobutylphenyl)-2-oxo-4-(p-tolyl)-1,2-dihydropyridine-3-carbonitrile (4h)] | 2.7 µM | 11.2 µM |

Further lines, results first:

| IC50 [1] | IC50 [2] | Structure (SMILES) |
| --- | --- | --- |
| 1.6 µM | 9.4 µM | CS(=O)(=O)Nc1ccc(-c2cc(-c3ccccc3)c(C#N)c(=O)[nH]2)cc1 [6-(4-Methanesulfonylaminophenyl)-2-oxo-4-phenyl-1,2-dihydropyridine-3-carbonitrile (4m)] |
| 3.5 µM | 16.5 µM | CS(=O)(=O)Nc1ccc(C2=NN(c3ccc(S(N)(=O)=O)cc3)C(c3ccco3)C2)cc1 (stereo not drawn) [1-(4-Aminosulfonylphenyl)-5-(2-furyl)-3-(4-methanesulfonylaminophenyl)-4,5-dihydro-1H-pyrazole (6e)] |
| 2.9 µM | 9.8 µM | CS(=O)(=O)Nc1ccc(-c2cc(-c3ccco3)c(C#N)c(=O)[nH]2)cc1 [4-(2-Furyl)-6-(4-methanesulfonylaminophenyl)-2-oxo-1,2-dihydropyridine-3-carbonitrile (4q)] |
| 1.3 µM | 8.6 µM | Cc1ccc(-c2cc(-c3ccc(NS(C)(=O)=O)cc3)[nH]c(=O)c2C#N)cc1 [6-(4-Methanesulfonylaminophenyl)-2-oxo-4-(4-tolyl)-1,2-dihydropyridine-3-carbonitrile (4n)] |
| 7.8 µM | 25.1 µM | CS(=O)(=O)Nc1ccc(C2=NN(c3ccc(S(N)(=O)=O)cc3)C(c3cccs3)C2)cc1 (stereo not drawn) [1-(4-Aminosulfonylphenyl)-5-(2-thienyl)-3-(4-methanesulfonylaminophenyl)-4,5-dihydro-1H-pyrazole (6f)] |
| 1.3 µM | 7.6 µM | CS(=O)(=O)Nc1ccc(C2=NN(c3ccc(S(N)(=O)=O)cc3)C(c3ccccc3)C2)cc1 (stereo not drawn) [1-(4-Aminosulfonylphenyl)-3-(4-methanesulfonylaminophenyl)-5-phenyl-4,5-dihydro-1H-pyrazole (6a)] |
| 3.9 µM | 18.7 µM | CS(=O)(=O)Nc1ccc(C2=NN(c3ccc(S(N)(=O)=O)cc3)C(c3ccc(F)cc3)C2)cc1 (stereo not drawn) [1-(4-Aminosulfonylphenyl)-5-(4-fluorophenyl)-3-(4-methanesulfonylaminophenyl)-4,5-dihydro-1H-pyrazole (6d)] |
| 7.5 µM | 23.6 µM | Cc1ccc(C2CC(c3ccc(NS(C)(=O)=O)cc3)=NN2c2ccc(S(N)(=O)=O)cc2)cc1 (stereo not drawn) [1-(4-Aminosulfonylphenyl)-3-(4-methanesulfonylaminophenyl)-5-(4-tolyl)-4,5-dihydro-1H-pyrazole (6b)] |
| 10.2 µM | 32.1 µM | CS(=O)(=O)Nc1ccc(-c2cc(-c3cccs3)c(C#N)c(=O)[nH]2)cc1 [6-(4-Methanesulfonylaminophenyl)-2-oxo-4-(2-thienyl)-1,2-dihydropyridine-3-carbonitrile (4r)] |
| 2.4 µM | 9.7 µM | CS(=O)(=O)Nc1ccc(C2=NN(c3ccc(S(N)(=O)=O)cc3)C(c3ccc(Cl)cc3)C2)cc1 (stereo not drawn) [1-(4-Aminosulfonylphenyl)-5-(4-chlorophenyl)-3-(4-methanesulfonylaminophenyl)-4,5-dihydro-1H-pyrazole (6c)] |
| 2.5 µM | 10.7 µM | CS(=O)(=O)Nc1ccc(-c2cc(-c3ccc(F)cc3)c(C#N)c(=O)[nH]2)cc1 [4-(4-Fluorophenyl)-6-(4-methanesulfonylaminophenyl)-2-oxo-1,2-dihydropyridine-3-carbonitrile (4p)] |
| 3.4 µM | 15.3 µM | CS(=O)(=O)Nc1ccc(-c2cc(-c3ccc(Cl)cc3)c(C#N)c(=O)[nH]2)cc1 [4-(4-Chlorophenyl)-6-(4-methanesulfonylaminophenyl)-2-oxo-1,2-dihydropyridine-3-carbonitrile (4o)] |
